Patent publication EP1208096B1, “SUBSTITUTED PYRIDAZINES AND FUSED PYRIDAZINES WITH ANGIOGENESIS INHIBITING ACTIVITY” (Bayer Corporation, priority 1999, dated 2001)

Tests used:
[1] = target: T1, cytosolic kinase domain of KDR kinase (Homo sapiens, UniProt P35968); experiment: KDR Assay (ELISA, phosphorylation of poly(Glu4;Tyr1)); format: biochemical; settings: 3.3 µM ATP, 60 minutes at room temperature, 30 ng KDR kinase domain
T1 construct: The cytosolic kinase domain of KDR kinase was expressed as a 6His fusion protein in Sf9 insect cells; 6His; made in house; host or cells: Sf9 insect cells
T1 sequence (P35968 834-1162 limits assumed): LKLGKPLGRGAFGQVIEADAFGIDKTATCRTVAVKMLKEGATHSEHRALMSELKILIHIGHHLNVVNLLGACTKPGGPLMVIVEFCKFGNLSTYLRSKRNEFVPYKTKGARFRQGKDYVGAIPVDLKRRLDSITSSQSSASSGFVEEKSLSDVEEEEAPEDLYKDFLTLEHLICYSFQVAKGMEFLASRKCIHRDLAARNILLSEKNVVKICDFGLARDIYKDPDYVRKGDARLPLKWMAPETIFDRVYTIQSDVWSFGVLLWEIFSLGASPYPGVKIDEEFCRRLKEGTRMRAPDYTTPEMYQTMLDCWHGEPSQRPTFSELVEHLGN
Procedure: The cytosolic kinase domain of KDR kinase was expressed as a 6His fusion protein in Sf9 insect cells. The KDR kinase domain fusion protein was purified over a Ni^++ chelating column. Ninety-six well ELISA plates were coated with 5 µg poly(Glu4;Tyr1) (Sigma Chemical Co., St Louis, MO) in 100 µl HEPES buffer (20 mM HEPES, pH 7.5, 150 mM NaCl, 0.02% Thimerosal) at 4° overnight. Before use, the plate was washed with HEPES, NaCl buffer and the plates were blocked with 1% BSA, 0.1% Tween 20 in HEPES, NaCl buffer.
Test compounds were serially diluted in 100% DMSO from 4 mM to 0.12 µM in half-log dilutions. These dilutions were further diluted twenty fold in H2O to obtain compound solutions in 5% DMSO. Following loading of the assay plate with 85 µl of assay buffer (20 mM HEPES, pH 7.5, 100 mM KCl, 10 mM MgCl2, 3 mM MnCl2, 0.05% glycerol, 0.005% Triton X-100, 1 mM -mercaptoethanol, with or without 3.3 µM ATP), 5 µl of the diluted compounds were added to a final assay volume of 100 µl. Final concentrations were between 10 µM, and 0.3 nM in 0.25% DMSO. The assay was initiated by the addition of 10µl (30 ng) of KDR kinase domain.
The assay was incubated with test compound or vehicle alone with gentle agitation at room temperature for 60 minutes. The wells were washed and phosphotyrosines (PY) were probed with an anti-phosphotyrosine (PY), mAb clone 4G10 (Upstate Biotechnology, Lake Placid, NY). PY/anti-PY complexes were detected with an anti-mouse IgG/HRP conjugate (Amersham International plc, Buckinghamshire, England). Phosphotyrosine was quantitated by incubating with 100 µl 3, 3', 5, 5' tetramethylbenzidine solution (Kirkegaard and Perry, TMB Microwell 1 Component peroxidase substrate). Color development was arrested by the addition of 100 µl 1% HCl-based stop solution (Kirkegaard and Perry, TMB I Component Stop Solution).
Optical densities were determined spectrophotometrically at 450 nm in a 96-well plate reader, SpectraMax 250 (Molecular Devices). Background (no ATP in assay) OD values were subtracted from all ODs and the percent inhibition was calculated according to the equation: % Inhibition =((OD(vehicle control) - OD(with compound)) X 100)/(OD(vehicle control) - OD(no ATP added)) [formula]
The IC50 values were determined with a least squares analysis program using compound concentration versus percent inhibition. Compounds that have IC50 < 100 nM in this assay include those of Examples 1, 2, 4, 5, 6, 7, 10, 11, 12, 13, 14, 15, 16 and 23. Compounds that have IC50 values between 100 nM and 1,000 nM include those of examples 8, 9 and 22. Those that have measured IC50 values > 1,000 nM include those of examples 3, 17, 18 and 21.

[2] = target: T2, NIH3T3 cells expressing the full length KDR receptor (Homo sapiens, UniProt P35968); experiment: Cell mechanistic assay - Inhibition of 3T3 KDR phosphorylation; format: cell-based; settings: VEGF (30 ng / ml) for 10 minutes after 30 minutes with compound; KDR phosphotyrosine ELISA
T2 construct: NIH3T3 cells expressing the full length KDR receptor; expressed in transfected cells; host or cells: NIH3T3 cells (G418 selection)
T2 sequence (P35968 20-1356): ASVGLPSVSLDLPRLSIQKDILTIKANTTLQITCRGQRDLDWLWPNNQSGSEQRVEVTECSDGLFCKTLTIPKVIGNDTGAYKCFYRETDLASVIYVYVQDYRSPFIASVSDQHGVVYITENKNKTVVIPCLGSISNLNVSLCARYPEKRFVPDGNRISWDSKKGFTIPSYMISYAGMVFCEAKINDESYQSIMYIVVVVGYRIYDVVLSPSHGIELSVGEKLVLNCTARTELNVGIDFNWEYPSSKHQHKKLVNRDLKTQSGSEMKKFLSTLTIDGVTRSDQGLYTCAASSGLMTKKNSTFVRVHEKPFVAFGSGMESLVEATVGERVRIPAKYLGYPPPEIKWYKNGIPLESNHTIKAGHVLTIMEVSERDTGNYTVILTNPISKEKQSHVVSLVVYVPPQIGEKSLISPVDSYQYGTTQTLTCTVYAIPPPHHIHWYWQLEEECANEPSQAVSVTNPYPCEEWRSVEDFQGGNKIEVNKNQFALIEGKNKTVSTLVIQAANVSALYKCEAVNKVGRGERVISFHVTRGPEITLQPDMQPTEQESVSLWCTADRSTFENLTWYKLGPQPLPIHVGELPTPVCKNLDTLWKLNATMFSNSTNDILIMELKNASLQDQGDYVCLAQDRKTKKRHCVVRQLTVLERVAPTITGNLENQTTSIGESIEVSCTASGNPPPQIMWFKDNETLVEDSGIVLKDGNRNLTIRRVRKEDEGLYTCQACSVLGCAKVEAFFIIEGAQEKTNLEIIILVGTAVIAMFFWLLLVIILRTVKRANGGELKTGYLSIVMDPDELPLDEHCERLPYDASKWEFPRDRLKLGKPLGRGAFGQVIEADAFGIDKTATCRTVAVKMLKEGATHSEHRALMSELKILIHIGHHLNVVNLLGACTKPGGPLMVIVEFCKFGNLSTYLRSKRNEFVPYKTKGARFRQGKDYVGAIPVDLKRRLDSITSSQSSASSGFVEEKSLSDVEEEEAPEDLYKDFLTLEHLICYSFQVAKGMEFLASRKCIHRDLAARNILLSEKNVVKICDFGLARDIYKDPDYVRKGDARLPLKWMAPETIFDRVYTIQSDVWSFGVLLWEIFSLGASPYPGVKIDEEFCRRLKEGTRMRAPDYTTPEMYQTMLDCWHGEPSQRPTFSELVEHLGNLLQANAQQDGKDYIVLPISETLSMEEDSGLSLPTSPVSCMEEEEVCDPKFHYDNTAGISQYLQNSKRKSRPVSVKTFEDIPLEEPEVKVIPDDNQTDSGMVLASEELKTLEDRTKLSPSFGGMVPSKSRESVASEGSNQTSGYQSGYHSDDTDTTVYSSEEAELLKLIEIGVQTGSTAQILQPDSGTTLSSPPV
Procedure: NIH3T3 cells expressing the full length KDR receptor were grown in DMEM (Life Technologies, Inc., Grand Island, NY) supplemented with 10% newborn calf serum, low glucose, 25 mM /L sodium pyruvate, pyridoxine hydrochloride and 0.2 mg/ ml of G418 (Life Technologies Inc., Grand Island, NY). The cells were maintained in collagen I-coated T75 flasks (Becton Dickinson Labware, Bedford, MA) in a humidified 5% CO2 atmosphere at 37°C.
Fifteen thousand cells were plated into each well of a collagen I-coated 96-well plate in the DMEM growth medium. Six hours later, the cells were washed and the medium was replaced with DMEM without serum. After overnight culture to quiesce the cells, the medium was replaced by Dulbecco's phosphate-buffered saline (Life Technologies Inc., Grand Island, NY) with 0.1% bovine albumin (Sigma Chemical Co., St Louis, MO). After adding various concentrations (0-300 nM) of test compounds to the cells in 1% final concentration of DMSO, the cells were incubated at room temperature for 30 minutes. The cells were then treated with VEGF (30 ng / ml) for 10 minutes at room temperature. Following VEGF stimulation, the buffer was removed and the cells were lysed by addition of 150 µl of extraction buffer (50 mM Tris, pH 7.8, supplemented with 10% glycerol, 50 mM BGP, 2 mM EDTA, 10 mM NaF, 0.5 mM NaVO4, and 0.3% TX-100) at 4°C for 30 minutes.
To assess receptor phosphorylation, 100 microliters of each cell lysate was added to the wells of an ELISA plate precoated with 300 ng of antibody C20 (Santa Cruz Biotechnology, Inc., Santa Cruz , CA). Following a 60-minute incubation, the plate was washed and bound KDR was probed for phosphotyrosine using an anti-phosphotyrosine mAb clone 4G10 (Upstate Biotechnology, Lake Placid, NY). The plate was washed and wells were incubated with anti-mouse IgG/HRP conjugate (Amersham International plc, Buckinghamshire, England) for 60 minutes. Wells were washed and phosphotyrosine was quantitated by addtion of 100 µl per well of 3,3',5,5' tetramethylbenzidine (Kirkegaard and Perry, TMB Microwell 1 Component peroxidase substrate) solution. Color development was arrested by the addition of 100 µl 1% HCl based stop solution (Kirkegaard and Perry, TMB 1 Component Stop Solution).
Optical densities (OD) were determined spectrophotometrically at 450 nm in a 96-well plate reader (SpectraMax 250, Molecular Devices). Background (no VEGF added) OD values were subtracted from all ODs and percent inhibition was calculated according to the equation: % Inhibition =((OD(VEGF control) - OD(with test compound)) X 100)/(OD(VEGF control) - OD(no VEGF added)) [formula]
IC50s were determined with a least squares analysis program using compound concentration versus percent inhibition. Compounds that have IC50 < 20 nM in this assay include those of Examples 2, 6, 7, 11, 15 and 16. Compounds that have IC50 values between 20 nM and 50 nM include those of examples 1, 4, 5, 8, 10, 12, 13 and 14. Those that have measured IC50 values > 50 nM include those of examples 9 and 21.

CNC(=O)c1cc(Cc2nnc(Nc3ccc(Cl)cc3)c3ccccc23)ccn1 [Example 1, 4-[4-(4-Chlorophenylamino)phthalazin-1-ylmethyl]pyridin-2-yl carboxylic acid methylamide]
IC50 [1]: < 0.1 µM
IC50 [2]: 0.02 to 0.05 µM
